The record followed here is patent US20200352163A1, “ANTIMICROBIAL MIXTURE CONTAINING 4-(3-ETHOXY-4-HYDROXYPHENYL)BUTAN-2-ONE AND AN AROMATIC ALCOHOL, AND COSMETIC COMPOSITION CONTAINING SAME” (L'OREAL, priority 2017, published 2020).

Common to all, as to assay: MIC / FIC synergy test in 96-well microplate, optical density at 620 nm
Common to all, as to format: cell-based
Common to all, as to details: for microbial growth percentage: weight %

In experiment [1] the test system is Enterococcus faecalis ATCC 33186. The text has this: (§1) FIC Index=(MIC of A with B/MIC of A)+(MIC of B with A/MIC of B)
(§2) with: • MIC of A with B: minimum concentration of product A in the combination A+B which makes it possible to obtain an inhibitory effect; • MIC of B with A: minimum concentration of product B in the combination A+B which makes it possible to obtain an inhibitory effect; • MIC of A: minimum inhibitory concentration of product A alone; • MIC of B: minimum inhibitory concentration of product B alone.
(§3) As regards the combinations tested, MIC of A with B and MIC of B with A are the respective concentrations of A and of B in the combinations which make it possible to obtain a microbial growth percentage of less than or equal to 20%.
(§4) When the FIC index value is less than or equal to 1, it is considered that the combination of test compounds has a synergistic effect.
The microbial strain Enterococcus faecalis ATCC 33186 and a double-concentration BHI (Brain Heart Infusion) broth liquid culture medium were used.
(§5) A 96-well microplate and an incubation temprature of 32.5° C. are used.
(§6) The incubation time of the microplate is: • from 18 to 24 h under aerobic conditions for Candida albicans ATCC 10231, Pseudomonas aeruginosa ATCC 9027 and Staphylococcus aureus ATCC 6538; • from 24 to 30 h under aerobic conditions for microbial Aspergillus niger ATCC 6275; • from 24 to 48 h under aerobic conditions for Enterococcus faecalis ATCC 33186.
(§7) A 10% (weight/volume) stock solution was prepared by mixing 1 g of compound in 9 ml of aqueous 1‰ agar solution. Successive dilutions were made with the 1‰ agar solution.
(§8) 50 μl of each of the daughter solutions obtained containing compound A or B are added to the microplate wells. 100 μl of Sabouraud liquid nutrient broth inoculated at double concentration with the Aspergillus niger strain and 50 μl of aqueous 1‰ agar solution are also added thereto.
(§9) 50 μl of each of the daughter solutions obtained containing compound A and 50 μl of each of the daughter solutions obtained containing compound B are added to the microplate wells. 100 μl of Sabouraud liquid nutrient broth inoculated at double concentration with the strain Aspergillus niger are also added thereto.
(§10) A positive microbial growth control was also prepared. The positive microbial growth control corresponds to a mixture of 100 μl of aqueous 1‰ agar solution with 100 μl of Sabouraud liquid nutrient broth inoculated at double concentration with the strain Aspergillus niger in the absence of compounds A and B.
(§11) An absorbance control was performed in parallel on compounds A and B alone. This control corresponds to 100 μl of double concentration sterile Sabouraud liquid nutrient broth+100 μl of double concentration compound A or B.
(§12) In the three cases (absorbance control, growth control and test), the final volume present in each of the microplate wells is 200 μl.
(§13) The test as described above (tests, absorbance control and growth control) was performed again to test the combination A+B on the following strains Enterococcus faecalis, Staphylococcus aureus, Pseudomonas aeruginosa, Candida albicans.

The test system of experiment [2] is Candida albicans ATCC 10231.
Text: as §1, §2, §3, §4
The microbial strain Candida albicans ATCC 10231 and a double-concentration Sabouraud broth liquid culture medium were used.
as §5, §6, §7, §8, §9, §10, §11, §12, §13

For experiment [3], the system named is Aspergillus niger ATCC 6275.
Text: as §1, §2, §3, §4
The microbial strain Aspergillus niger ATCC 6275, and a double-concentration Sabouraud broth liquid culture medium supplemented with polyoxyethylenated (20 OE) sorbitan monopalmitate (Tween 40 from Croda) and Phytagel© BioReagent were used (i.e. a mixture of 5 g of Phytagel+0.6 g Tween 40+60 g of Sabouraud broth).
as §5, §6, §7, §8, §9, §10, §11, §12
In the two cases (test and control), the inoculum represents the concentration of the Aspergillus niger strain present in the final volume of the wells (200 μl) and is between 2 and 6×10^5 cfu/ml of Aspergillus niger.

Experiment [4] has as its system Staphylococcus aureus ATCC 6538.
Text: as §1, §2, §3, §4
The microbial strain Staphylococcus aureus ATCC 6538 and a double-concentration nutrient broth liquid culture medium were used.
as §5, §6, §7, §8, §9, §10, §11, §12, §13

The test system of experiment [5] is Pseudomonas aeruginosa ATCC 9027.
Text: as §1, §2, §3, §4
The microbial strain Pseudomonas aeruginosa ATCC 9027 and a double-concentration nutrient broth liquid culture medium were used.
as §5, §6, §7, §8, §9, §10, §11, §12, §13

Where [6] appears, read: first concentration giving growth <= 20%.
Setting [7] is: Example 1, first concentration giving growth <= 20%.
The mark [8] stands for this setting: Example 5, first concentration giving growth <= 20%.

Regarding `Cc1cc(O)ccc1C(C)C` [B4, 4-isopropyl-3-methylphenol], the “% MIC of B4 alone” value is 0.1% in experiment [1] and 0.04% in experiment [2] (setting [6]). Moreover, the microbial growth percentage amounted to 45% in experiment [1] (0.0125 B4 alone); 44% in experiment [1] (0.025 B4 alone); 27% in experiment [1] (0.05 B4 alone); 23% in experiment [1] (0.1 B4 alone); 87% in experiment [2] (0.0025 B4 alone); 82% in experiment [2] (0.005 B4 alone). In addition, the microbial growth percentage in experiment [2] (0.01 B4 alone) is 73%; in experiment [2] (0.02 B4 alone), 35%; in experiment [2] (0.04 B4 alone), 1%.
For `OCCc1ccccc1` [B2, phenylethyl alcohol], the microbial growth percentage in experiment [2] (0.125 B2 alone) stood at 41%; in experiment [2] (0.25 B2 alone) it was 7%. In experiment [2] (B2 alone, first concentration giving growth <= 20%), the “MIC B2” value was determined as 0.25%.
Turning to `OCCOc1ccccc1` [B1, 2-phenoxyethanol], the microbial growth percentage in experiment [3] (0.0625 B1 alone) was 95%; in experiment [3] (0.125 B1 alone), 89%; in experiment [3] (0.25 B1 alone), 8%; in experiment [1] (0.0625 B1 alone) it was 87%; in experiment [1] (0.125 B1 alone) it was 86%; in experiment [1] (0.25 B1 alone) it was 84%. For the same compound, the microbial growth percentage worked out at 80% in experiment [1] (0.5 B1 alone); 6% in experiment [1] (1 B1 alone); 66% in experiment [4] (0.0625 B1 alone); 73% in experiment [4] (0.125 B1 alone); 58% in experiment [4] (0.25 B1 alone); 1% in experiment [4] (0.5 B1 alone). Also, the microbial growth percentage worked out at 45% in experiment [5] (0.0625 B1 alone); 39% in experiment [5] (0.125 B1 alone); 39% in experiment [5] (0.25 B1 alone); 0% in experiment [5] (0.5 B1 alone); 0% in experiment [5] (1 B1 alone); 44% in experiment [2] (0.0625 B1 alone). Also, the microbial growth percentage in experiment [2] (0.125 B1 alone) was found to be 22%; in experiment [2] (0.25 B1 alone), 2%. Moreover, the “% MIC of B1 alone” value in experiment [3] (setting [6]) came to 0.25%; in experiment [1] (setting [6]) it was 1%; in experiment [4] (setting [6]) it was 0.5%; in experiment [5] (setting [6]), 0.5%; in experiment [2] (setting [6]), 0.25%.
Take `CCOc1cc(CCC(C)=O)ccc1O` [A, 4-(3-ethoxy-4-hydroxyphenyl)butan-2-one]: the microbial growth percentage in experiment [3] (0.0625 A alone, Example 1) stood at 85%; in experiment [3] (0.0625 A alone, Example 5) it was 86%; in experiment [3] (0.125 A alone, Example 1) it was 47%; in experiment [3] (0.125 A alone, Example 5), 41%; in experiment [3] (0.25 A alone, Example 1) it was 7%; in experiment [3] (0.25 A alone, Example 5), 6%. The microbial growth percentage in experiment [1] (0.0625 A alone, Example 1) is listed as 82%; in experiment [1] (0.0625 A alone, Example 5), 78%; in experiment [1] (0.0625 A alone, Example 6) it was 42%; in experiment [1] (0.125 A alone, Example 1) it was 89%; in experiment [1] (0.125 A alone, Example 5), 86%; in experiment [1] (0.125 A alone, Example 6), 42%. In addition, the microbial growth percentage in experiment [1] (0.25 A alone, Example 1) is given as 89%; in experiment [1] (0.25 A alone, Example 5) it was 92%; in experiment [1] (0.25 A alone, Example 6) it was 33%; in experiment [1] (0.5 A alone, Example 1) it was 75%; in experiment [1] (0.5 A alone, Example 5), 72%; in experiment [1] (0.5 A alone, Example 6) it was 34%. Besides, the microbial growth percentage in experiment [1] (1 A alone, Example 1) stood at 13%; in experiment [1] (1 A alone, Example 5), 4%; in experiment [1] (1 A alone, Example 6), 24%; in experiment [4] (0.0625 A alone), 71%; in experiment [4] (0.125 A alone), 57%; in experiment [4] (0.25 A alone) it was 52%. Moreover, the microbial growth percentage in experiment [4] (0.5 A alone) was 1%; in experiment [5] (0.0625 A alone), 49%; in experiment [5] (0.125 A alone), 82%; in experiment [5] (0.25 A alone), 116%; in experiment [5] (0.5 A alone) it was 67%; in experiment [5] (1 A alone), −4%. The microbial growth percentage in experiment [2] (0.025 A alone, Example 1) is recorded as 48%; in experiment [2] (0.025 A alone, Example 3), 85%; in experiment [2] (0.025 A alone, Example 6), 69%; in experiment [2] (0.05 A alone, Example 1) it was 29%; in experiment [2] (0.05 A alone, Example 3), 64%; in experiment [2] (0.05 A alone, Example 6) it was 63%. For the same compound, the microbial growth percentage in experiment [2] (0.1 A alone, Example 1) is on record as 16%; in experiment [2] (0.1 A alone, Example 3) it was 25%; in experiment [2] (0.1 A alone, Example 6) it was 38%; in experiment [2] (0.2 A alone, Example 3), 3%; in experiment [2] (0.2 A alone, Example 6), 4%. Further, the “% MIC of A alone” value was found to be 0.25% in experiment [3] (setting [7]); 0.25% in experiment [3] (setting [8]); 1% in experiment [1] (setting [7]); 1% in experiment [1] (setting [8]); 1% in experiment [1] (Example 6); 0.5% in experiment [4] (setting [6]). The “% MIC of A alone” value in experiment [5] (setting [6]) is reported as 1%; in experiment [2] (setting [7]) it was 0.1%; in experiment [2] (Example 6, first concentration giving growth <= 20%), 0.2%. In addition, the “% MIC A” value in experiment [2] (A alone, Example 3, first concentration giving growth <= 20%) is reported as 0.2%.
On to `OCc1ccccc1` [B3, benzyl alcohol], for which the microbial growth percentage in experiment [3] (0.0125 B3 alone) is reported as 94%; in experiment [3] (0.25 B3 alone), 31%; in experiment [3] (0.5 B3 alone) it was 1%; in experiment [1] (0.25 B3 alone) it was 77%; in experiment [1] (0.5 B3 alone), 30%; in experiment [1] (1 B3 alone), 3%. Also, the figures for the “% MIC of B3 alone” value in experiment [3] (setting [6]) and in experiment [1] (setting [6]) were 0.5% and 1%, respectively.
